“Also recorded” adds a separate entry of the source. Read-outs that look alike come from different tables or passages of the source.
Experiments:
[1] = target: T1, human ADP-glucose receptor (Homo sapiens, UniProt Q9H244); test: Intracellular calcium mobilization (FLIPR, Fluo4-AM) in CHO cells transiently transfected with the cloned receptor; type: cell-based; conditions: for induction of increase in intracellular Ca2+ / receptor activation: CHO cells cotransfected with receptor, Gα16 and chimeric Gαqi3; for increase in intracellular Ca2+ in untransfected cells: untransfected CHO cells
T1 construct: such that a nucleic acid molecule encoding a full-length ADP-glucose receptor can be amplified; expressed in transfected cells
T1 sequence (Q9H244 whole entry): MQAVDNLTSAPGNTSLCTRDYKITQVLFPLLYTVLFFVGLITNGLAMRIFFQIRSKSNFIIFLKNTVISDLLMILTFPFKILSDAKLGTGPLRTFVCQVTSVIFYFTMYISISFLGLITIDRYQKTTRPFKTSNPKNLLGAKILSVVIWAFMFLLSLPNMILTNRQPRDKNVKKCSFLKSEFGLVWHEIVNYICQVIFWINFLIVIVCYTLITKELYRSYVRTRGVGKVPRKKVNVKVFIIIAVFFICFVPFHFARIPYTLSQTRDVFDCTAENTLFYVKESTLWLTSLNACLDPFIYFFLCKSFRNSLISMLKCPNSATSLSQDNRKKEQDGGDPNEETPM
Protocol: (§1) In order to characterize the function of the encoded receptor, the pCDNA3.1 expression construct containing the amplified receptor gene was transiently transfected into human embryonic kidney (HEK 293) cells or Chinese hamster ovary (CHO) cells. HEK 293 cells were cultured in DMEM containing 10% fetal bovine serum (FBS), and CHO cells were cultured in alpha-MEM with 5% FBS. All cells were kept at 37° C. in a 5% CO2 atmosphere.
(§2) For certain experiments, the cells were transiently cotransfected with the receptor construct and equimolar ratios of the G-protein alpha subunit Gα16 and/or the chimeric subunit […] in pCDNA3.1 (described in Saito et al., Nature 265-269 (1999)). For functional assays measuring intracellular calcium, twenty-four hours after transfection, cells were seeded into black clear-bottom 96-well plates at a density of 50,000 cells/well. Following overnight incubation the cells were loaded for 1 h with 1 μM of the fluorescent calcium indicator dye Fluo4-AM (Molecular Probes) dissolved in assay buffer containing Hank's balanced salts, 20 mM HEPES, 1% FBS, 2.5 mM probenecid, pH 7.4. After loading, the cells were washed three times with assay buffer without FBS. Addition of drugs and measurement of changes in intracellular calcium were performed using a fluorimetric imaging plate reader (FLIPR, Molecular Devices). Agonist responses were determined using the maximum change in fluorescence over baseline.
To enforce coupling of the novel receptor to the phospholipase C pathway, CHO cells were transiently cotransfected with expression constructs containing the amplified receptor DNA, Gα16 and a chimeric Gαq subunit carrying the C-terminal tail of Gαi3.
Dose-response curves were calculated using GraphPad Prism (GraphPad Software Inc.).
In order to determine the preferential G-protein coupling of the ADP-glucose receptor, mobilization of [Ca^2+]i was examined in CHO cells expressing either the receptor alone or in combination with either Gα16 or Gαqi3.

[2] = system: endogenous ADP-glucose receptor in HEK 293 cells; test: Intracellular calcium mobilization (FLIPR, Fluo4-AM) in HEK 293 cells; type: cell-based, human
Protocol: as §1, §2
The ADP-glucose receptor construct was also expressed in HEK 293 cells.

[3] = system: guinea pig ileum; test: Isometric contractions of guinea pig ileal segments in organ bath
Protocol: Ileal segments (about 2 cm) were prepared from male guinea pigs euthanized by asphyxiation with CO2 and mounted in an organ bath filled with Krebs-Ringer bicarbonate (KRB) buffer as described in Thomas et al., Mol. Pharmacol. 44:102-110 (1993). Isometric contractions of the preparations were measured with a force transducer and recorded on a polygraph (Grass Instruments). The contractile responses are expressed as the mass (g) required to generate the measured force. For contractile measurements of field-stimulations, ilea were mounted between platinum ring electrodes connected to a stimulator (Grass SD9). Ilea were electrically stimulated (40 mV, 8 ms duration, 0.2 Hz) for 5 min followed by a resting period of 8-10 min.
Drugs were diluted in KRB and added directly to the bath. For intraluminal drug application a polyethylene tube (I.D.: 2 mm; length: 1.2 cm) was inserted about 3 mm deep into the ileum and fixed with a surgical thread. The other end of the preparation was closed tightly by a thread. The intubated ilea were mounted in the organ bath in such a way that the open end of the polyethylene tube was extending above the buffer surface. Drugs were administered to the ileal lumen using a Hamilton syringe. After each incubation, ilea were washed three times with KRB and allowed to equilibrate for at least 10 min. For some experiments ilea were removed from animals that had been treated with 100 μg/kg pertussis toxin three days prior to the experiment. Dose response curves were obtained in separate experiments for each drug concentration tested in duplicate and EC50 values were calculated using GraphPad Prism.
However, due to the irregular nature of these contractions it was not possible to study dose-response relationships of pharmacological agents in such a preparation. Therefore, field-stimulation was used to elicit contractions that are known to be mediated by neuronal release of acetylcholine activating M3 muscarinic receptors (Cowie et al., Brit. J. Pharmacol. 64:565-580 (1978); Kilbinger et al., Eur. J. Pharmacol. 103:313-320 (1984)).

[4] = system: isolated frog heart; conditions: cyclic perfusion; cited from earlier work
[5] = system: unanesthetised frogs; conditions: systemic administration; cited from earlier work
[6] = system: rat arterial tissues; test: Contraction of precontracted rat arterial rings in organ bath; conditions: for EC50: read-out: EC50 of relaxation
Protocol: Rat arterial tissues were prepared as described previously (Duckles, S. P., J. Pharmacol. Exp. Ther. 240: 697-700 (1987); Sara Sangha et al., J. Appl. Physiol. 88: 507-517 (2000)). Briefly, male Wistar rats (250 g) were sacrificed by decapitation. The thoracic and abdominal aorta and the carotid artery were immediately removed and cleaned of adhering tissue. Arteries were cut into rings (about 3 mm in length) and mounted into an organ bath filled with Kreb-Ringer-bicarbonate buffer at 37° C. (buffer composition: 119.2 mM NaCl, 25 mM NaHCO3, 4.9 mM KCl, 1.2 mM MgSO4, 11.1 mM glucose, 0.114 mM ascorbic acid, pH 7.4). The buffer was aerated by bubbling with 95% O2:5% CO2. Arterial rings were connected to a force transducer and isometric contractions of the preparations were recorded using MacLab. The contractile responses are expressed as the mass (g) required to generate the measured force. The arterial preparations were equilibrated for one hour at a resting force of 2 g and then challenged several times with 100 mM KCl to establish a baseline.
To determine the effect of ADP-glucose on evoked contractions, arterial rings were precontracted with either 0.3 μM phenylephrine or 0.3 μM serotonin. ADP-glucose was subsequently added to the arterial rings in a cumulative manner to establish a dose-response relationship between ADP-glucose concentration and arterial ring contraction. At the end of each experiment, residual constriction was reversed by the addition of 1 μM acetylcholine. Each arterial preparation was tested in triplicate with each cumulative dosage scheme carried out at least twice. Data are expressed as means±S.E.M. and dose-response curves were calculated with Prism (GraphPad, San Diego).

[7] = CHO cells transiently transfected with receptor construct together with Gα16 and Gαqi3, read-out: EC50 of transient increase in [Ca2+]i
[8] = untransfected HEK 293 cells, endogenous receptor, read-out: EC50 of [Ca2+]i increase
[9] = carotid arteries, serotonin-induced constrictions

## Nc1ncnc2c1ncn2[C@@H]1O[C@H](COP(=O)(O)OP(=O)(O)OC[C@H]2OC(O)[C@H](O)[C@@H]2O)[C@@H](O)[C@H]1O (stereo partly shown) [ADP-ribose]
[1]
  induction of increase in intracellular Ca2+ / receptor activation: partial agonist; also recorded: induced a dose-dependent and transient increase
  increase in intracellular Ca2+ in untransfected cells: not in untransfected cells
[1]; [7]
  EC50: 59.4 ± 7.3 µM
[2]
  [Ca2+]i response in HEK 293 cells: full agonist
[2]; [8]
  EC50: 38.7 ± 10.6 µM
[3]; field-stimulated ileum, drug added to bath
  effect on electrically-evoked contractions: very similar inhibitory effects
[4]
  effect on action potential in the sinus node: decrease in the action potential duration and rate of rise in the sinus node
  effect on heart rate and contraction force: dose-dependent decrease in heart rate and contraction force
[5]
  effect on heart rate: reversible increase in heart rate

## Nc1ccn([C@@H]2O[C@H](COP(=O)(O)OP(=O)(O)O[C@H]3O[C@H](CO)[C@@H](O)[C@H](O)[C@H]3O)[C@@H](O)[C@H]2O)c(=O)n1 [CDP-glucose]
[1]
  induction of increase in intracellular Ca2+ / receptor activation: only ADP-glucose and ADP-ribose induced a dose-dependent and transient increase
[2]
  [Ca2+]i response in HEK 293 cells: did not respond

## Nc1ncnc2c1ncn2[C@@H]1O[C@H](COP(=O)(O)O)[C@@H](O)[C@H]1O [AMP]
[1]
  induction of increase in intracellular Ca2+ / receptor activation: only ADP-glucose and ADP-ribose induced a dose-dependent and transient increase

## Nc1ncnc2c1ncn2[C@@H]1O[C@H](COP(=O)(O)OP(=O)(O)O)[C@@H](O)[C@H]1O [ADP]
[1]
  induction of increase in intracellular Ca2+ / receptor activation: only ADP-glucose and ADP-ribose induced a dose-dependent and transient increase

## Cc1cn([C@H]2C[C@H](O)[C@@H](COP(=O)(O)OP(=O)(O)O[C@H]3O[C@H](CO)[C@@H](O)[C@H](O)[C@H]3O)O2)c(=O)[nH]c1=O [TDP-glucose]
[1]
  induction of increase in intracellular Ca2+ / receptor activation: only ADP-glucose and ADP-ribose induced a dose-dependent and transient increase
[2]
  [Ca2+]i response in HEK 293 cells: did not respond

## Nc1ncnc2c1ncn2[C@@H]1O[C@H](CO)[C@@H](O)[C@H]1O [adenosine]
[1]
  induction of increase in intracellular Ca2+ / receptor activation: only ADP-glucose and ADP-ribose induced a dose-dependent and transient increase

## Nc1nc2c(ncn2[C@@H]2O[C@H](COP(=O)(O)OP(=O)(O)O[C@H]3O[C@H](CO)[C@@H](O)[C@H](O)[C@H]3O)[C@@H](O)[C@H]2O)c(=O)[nH]1 [GDP-glucose]
[1]
  induction of increase in intracellular Ca2+ / receptor activation: only ADP-glucose and ADP-ribose induced a dose-dependent and transient increase
[2]
  [Ca2+]i response in HEK 293 cells: did not respond

## Nc1ncnc2c1ncn2[C@@H]1O[C@H](COP(=O)(O)OP(=O)(O)O[C@H]2O[C@H](CO)[C@@H](O)[C@H](O)[C@@H]2O)[C@@H](O)[C@H]1O [ADP-mannose]
[1]
  induction of increase in intracellular Ca2+ / receptor activation: only ADP-glucose and ADP-ribose induced a dose-dependent and transient increase; also recorded: unable to activate the receptor

## Nc1ncnc2c1ncn2[C@@H]1O[C@H](COP(=O)(O)OP(=O)(O)O[C@H]2O[C@H](CO)[C@@H](O)[C@H](O)[C@H]2O)[C@@H](O)[C@H]1O [ADP-glucose, adenosine 5′-diphosphoglucose]
[1]; CHO cells cotransfected with receptor and Gαqi3, read-out: EC50 of [Ca2+]i mobilization
  EC50: 8.2 ± 1.3 µM
[1]
  induction of increase in intracellular Ca2+ / receptor activation: induced a dose-dependent and transient increase
  increase in intracellular Ca2+ in untransfected cells: not in untransfected cells
[1]; CHO cells expressing receptor alone, read-out: EC50 of [Ca2+]i mobilization
  EC50: 24 ± 4.1 µM
[1]; [7]
  EC50: 2.98 ± 0.22 µM
[1]; CHO cells, receptor with Gα16, read-out: EC50 of [Ca2+]i mobilization
  EC50: 11.8 ± 2.4 µM
[2]
  [Ca2+]i response in HEK 293 cells: strong mobilization of [Ca^2+]i
[2]; HEK 293 cells transiently cotransfected with cloned receptor and Gα16, read-out: EC50 of intracellular Ca2+ release
  EC50: 2.5 ± 0.82 µM
[2]; [8]
  EC50: 2.9 ± 0.51 µM
[3]; contractions produced by 0.3 μM histamine
  maximal inhibition of histamine-evoked contractions: 60%
[3]; contractions produced by 0.3 μM histamine, read-out: EC50 of inhibition of histamine-evoked contractions
  EC50: 6.2 ± 1.8 µM
[3]; field-stimulated, untreated ileum, read-out: EC50 of inhibition of electrically evoked contractions
  EC50: 6.64 ± 0.4 µM
[3]; ileum from pertussis toxin treated animals
  maximal inhibition of electrically evoked contractions: 40%
[3]; ileum from pertussis toxin treated animals, read-out: EC50 of inhibition of electrically evoked contractions
  EC50: 35.5 ± 5.5 µM
[3]; ileum punctured to release intraluminal content into the bath
  effect on electrically-evoked contractions: strong inhibition
[3]; intraluminal administration
  effect on field-stimulated contractions: no effect
[3]; maximally effective concentrations, untreated ileum
  maximal inhibition of electrically evoked contractions: 90%
[3]; muscarinic agonist oxotremorine M
  effect on contractions produced by oxotremorine M: unaffected
[3]; spontaneous contractions, ileum preparations
  effect on spontaneous contractions: inhibition of spontaneous contractions
[6]; abdominal aorta, precontracted with 0.3 μM phenylephrine
  EC50: 6.67 ± 1.8 µM
[6]; abdominal aorta, precontracted with 0.3 μM serotonin
  EC50: 3.26 ± 0.12 µM
[6]; abdominal aorta, serotonin-precontracted
  maximal relaxation: about 80%
[6]; [9]
  maximal relaxation: 40%
  EC50: 20.5 ± 6.3 µM
[6]; carotid artery, precontracted with 0.3 μM phenylephrine
  EC50: 3.1 ± 0.3 µM
[6]; phenylephrine-precontracted, highest concentration tested, all three tissues
  maximal relaxation: 40%-50%
[6]; thoracic aorta, precontracted with 0.3 μM phenylephrine
  EC50: 13.8 ± 2.8 µM
[6]; thoracic aorta, serotonin-precontracted
  response of serotonin-precontracted thoracic aorta: unresponsive
[6]; untreated arterial tissue at resting force
  effect on untreated arterial tissue: no effect

## Nc1ncnc2c1ncn2[C@@H]1O[C@H](COP(=O)(O)OP(=O)(O)OP(=O)(O)O)[C@@H](O)[C@H]1O [ATP]
[1]
  induction of increase in intracellular Ca2+ / receptor activation: only ADP-glucose and ADP-ribose induced a dose-dependent and transient increase

Source: patent publication US6790608B2, “Methods of identifying and ADP-glucose receptor ligand, agonist or antagonist” (The Regents of the University of California, priority 2000, dated 2004)
